Results from publication PMC10878397, “Development of Potent Dual BET/HDAC Inhibitors via Pharmacophore Merging and Structure-Guided Optimization” (ACS Chemical Biology, 2024).

What was measured:
[1] = test system: histone H3 K9/K14 acetylation in PaTu8988T cells; experiment: Western blot of histone H3 K9/K14 acetylation; assay type: cell-based; settings: 48 h, 1 μM inhibitor or concentration series
Protocol: Protein samples were prepared in RIPA buffer (9806S, Cell Signaling Technology) containing a protease inhibitor cocktail (Roche). Proteins were separated in SDS-polyacrylamide gels, transferred to nitrocellulose membranes with a Trans-Blot Turbo Transfer System (Bio-Rad), and incubated with antibodies dissolved in TBS buffer containing 5% BSA and 0.1% Tween20. The following primary antibodies were used: rabbit anti-β-actin (ab8227, Abcam) and rabbit antiacetyl-histone H3 (Lys9/Lys14; 9677, Cell Signaling Technology). Primary antibodies were recognized by a peroxidase-coupled secondary antibody (Jackson), and signals were detected by chemiluminescence.

BRD4 BD2 = BRD4 BD2 (Homo sapiens, UniProt O60885); experiment: NanoBRET target engagement assay (HEK293T); assay type: cell-based; design: BRD4 bromodomains and full-length HDACs were obtained as plasmids cloned in-frame with a terminal NanoLuc fusion; host or cells: HEK293T; settings: intact cells
Protocol: The assay was performed as described previously.[17],[59] In brief, BRD4 bromodomains and full-length HDACs were obtained as plasmids cloned in-frame with a terminal NanoLuc fusion (Promega). Plasmids were transfected into HEK293T cells using FuGENE HD (Promega, E2312), and proteins were allowed to express for 20 h. Serially diluted inhibitor and the corresponding NanoBRET Tracer (Promega) at a concentration determined previously as the tracer KD, app were pipetted into white 384-well plates (Greiner #781207) for BRD assays or white 96-well plates (Corning #3600) for HDAC using an Echo acoustic dispenser (Labcyte). The corresponding protein-transfected cells were added and reseeded at a density of 2 × 10^5 cells/mL after trypsinization and resuspended in Opti-MEM without phenol red (Life Technologies). The system was allowed to equilibrate for 2 h at 37 °C/5% CO2 prior to BRET measurements. To measure BRET, NanoBRET NanoGlo substrate + Extracellular NanoLuc Inhibitor (Promega, N2540) was added as per the manufacturer’s protocol, and filtered luminescence was measured on a PHERAstar plate reader (BMG Labtech) equipped with a luminescence filter pair (450 nm BP filter (donor) and 610 nm LP filter (acceptor)). For lysed-mode NanoBRET experiments, digitonin (Promega, #G9441) was added as per the manufacturer’s instructions to a final concentration of […].

panel of 32 bromodomains = experiment: DSF selectivity screen, whole panel; assay type: binding; settings: 10 μM compound
Protocol: (§1) The effects of inhibitor binding on the apparent melting temperature of recombinant bromodomains were determined by DSF in a 96-well plate (Starlab) at a protein concentration of 2 μM with 10 μΜ compound in buffer containing 25 mM HEPES, pH 7.5, 150 mM NaCl, and 0.5 mM TCEP. […] Protein unfolding profiles were recorded using an MX3005P real-time qPCR instrument (Agilent; excitation/emission filters = 492/610 nm) while increasing the temperature from 25 to 95 °C at a heating rate of 3 °C/min. Tm values were calculated after fitting the fluorescence curves to the Boltzmann equation. Differences in melting temperature upon compound binding are given as ΔTm = Tm (protein with inhibitor) – Tm (protein with DMSO control). Measurements were performed in triplicates.

CREBBPA = target: T1, CREBBPA (Homo sapiens, UniProt Q92793); experiment: DSF bromodomain selectivity panel; assay type: binding; settings: 10 μM compound
T1 construct: purchased in-house (SGC Frankfurt recombinant bromodomain DSF panel)
Protocol: as §1

SMARCA2A = target: T2, SMARCA2A (Homo sapiens, UniProt P51531); experiment: DSF bromodomain selectivity panel; assay type: binding; settings: 10 μM compound
T2 construct: purchased in-house (SGC Frankfurt recombinant bromodomain DSF panel)
Protocol: as §1

PB1A(4) = target: T3, PB1A(4) (Homo sapiens, UniProt Q86U86); experiment: DSF bromodomain selectivity panel; assay type: binding; settings: 10 μM compound
T3 construct: PB1A(4); purchased in-house (SGC Frankfurt recombinant bromodomain DSF panel)
Protocol: as §1

PCAFA = target: T4, PCAFA (Homo sapiens, UniProt Q92831); experiment: DSF bromodomain selectivity panel; assay type: binding; settings: 10 μM compound
T4 construct: purchased in-house (SGC Frankfurt recombinant bromodomain DSF panel)
Protocol: as §1

BRD2 (2) = target: T5, BRD2 (2) (Homo sapiens, UniProt P25440); experiment: DSF bromodomain selectivity panel; assay type: binding; settings: 10 μM compound
T5 construct: BRD2 (2); purchased in-house (SGC Frankfurt recombinant bromodomain DSF panel)
Protocol: as §1

TRIM28 = target: T6, TRIM28 (Homo sapiens, UniProt Q13263); experiment: DSF bromodomain selectivity panel; assay type: binding; settings: 10 μM compound, construct containing tandem PHD-BD
T6 construct: purchased in-house (SGC Frankfurt recombinant bromodomain DSF panel)
Protocol: as §1

BRD3 (2) = target: T7, BRD3 (2) (Homo sapiens, UniProt Q15059); experiment: DSF bromodomain selectivity panel; assay type: binding; settings: 10 μM compound
T7 construct: BRD3 (2); purchased in-house (SGC Frankfurt recombinant bromodomain DSF panel)
Protocol: as §1

BRDT(1) = target: T8, BRDT(1) (Homo sapiens, UniProt Q58F21); experiment: DSF bromodomain selectivity panel; assay type: binding; settings: 10 μM compound
T8 construct: BRDT(1); purchased in-house (SGC Frankfurt recombinant bromodomain DSF panel)
Protocol: as §1

TRIM24 = target: T9, TRIM24 (Homo sapiens, UniProt O15164); experiment: DSF bromodomain selectivity panel; assay type: binding; settings: 10 μM compound, construct containing tandem PHD-BD
T9 construct: purchased in-house (SGC Frankfurt recombinant bromodomain DSF panel)
Protocol: as §1

TRIM33B = target: T10, TRIM33B (Homo sapiens, UniProt Q9UPN9); experiment: DSF bromodomain selectivity panel; assay type: binding; settings: 10 μM compound, construct containing tandem PHD-BD
T10 construct: purchased in-house (SGC Frankfurt recombinant bromodomain DSF panel)
Protocol: as §1

SP100 = experiment: DSF bromodomain selectivity panel; assay type: binding; settings: 10 μM compound
Protocol: as §1

BRD1 = target: T11, BRD1 (Homo sapiens, UniProt O95696); experiment: DSF bromodomain selectivity panel; assay type: binding; settings: 10 μM compound
T11 construct: purchased in-house (SGC Frankfurt recombinant bromodomain DSF panel)
Protocol: as §1

BRD2 (1) = target: T12, BRD2 (1) (Homo sapiens, UniProt P25440); experiment: DSF bromodomain selectivity panel; assay type: binding; settings: 10 μM compound
T12 construct: BRD2 (1); purchased in-house (SGC Frankfurt recombinant bromodomain DSF panel)
Protocol: as §1

TAF1 (1) = target: T13, TAF1 (1) (Homo sapiens, UniProt P21675); experiment: DSF bromodomain selectivity panel; assay type: binding; settings: 10 μM compound
T13 construct: TAF1 (1); purchased in-house (SGC Frankfurt recombinant bromodomain DSF panel)
Protocol: as §1

BRD7 = target: T14, BRD7 (Homo sapiens, UniProt Q9NPI1); experiment: DSF bromodomain selectivity panel; assay type: binding; settings: 10 μM compound
T14 construct: purchased in-house (SGC Frankfurt recombinant bromodomain DSF panel)
Protocol: as §1

PB1A(5) = target: T15, PB1A(5) (Homo sapiens, UniProt Q86U86); experiment: DSF bromodomain selectivity panel; assay type: binding; settings: 10 μM compound
T15 construct: PB1A(5); purchased in-house (SGC Frankfurt recombinant bromodomain DSF panel)
Protocol: as §1

TAF1LA (2) = target: T16, TAF1LA (2) (Homo sapiens, UniProt Q8IZX4); experiment: DSF bromodomain selectivity panel; assay type: binding; settings: 10 μM compound
T16 construct: TAF1LA (2); purchased in-house (SGC Frankfurt recombinant bromodomain DSF panel)
Protocol: as §1

TAF1LA (1) = target: T17, TAF1LA (1) (Homo sapiens, UniProt Q8IZX4); experiment: DSF bromodomain selectivity panel; assay type: binding; settings: 10 μM compound
T17 construct: TAF1LA (1); purchased in-house (SGC Frankfurt recombinant bromodomain DSF panel)
Protocol: as §1

T11 sequence (O95696 whole entry): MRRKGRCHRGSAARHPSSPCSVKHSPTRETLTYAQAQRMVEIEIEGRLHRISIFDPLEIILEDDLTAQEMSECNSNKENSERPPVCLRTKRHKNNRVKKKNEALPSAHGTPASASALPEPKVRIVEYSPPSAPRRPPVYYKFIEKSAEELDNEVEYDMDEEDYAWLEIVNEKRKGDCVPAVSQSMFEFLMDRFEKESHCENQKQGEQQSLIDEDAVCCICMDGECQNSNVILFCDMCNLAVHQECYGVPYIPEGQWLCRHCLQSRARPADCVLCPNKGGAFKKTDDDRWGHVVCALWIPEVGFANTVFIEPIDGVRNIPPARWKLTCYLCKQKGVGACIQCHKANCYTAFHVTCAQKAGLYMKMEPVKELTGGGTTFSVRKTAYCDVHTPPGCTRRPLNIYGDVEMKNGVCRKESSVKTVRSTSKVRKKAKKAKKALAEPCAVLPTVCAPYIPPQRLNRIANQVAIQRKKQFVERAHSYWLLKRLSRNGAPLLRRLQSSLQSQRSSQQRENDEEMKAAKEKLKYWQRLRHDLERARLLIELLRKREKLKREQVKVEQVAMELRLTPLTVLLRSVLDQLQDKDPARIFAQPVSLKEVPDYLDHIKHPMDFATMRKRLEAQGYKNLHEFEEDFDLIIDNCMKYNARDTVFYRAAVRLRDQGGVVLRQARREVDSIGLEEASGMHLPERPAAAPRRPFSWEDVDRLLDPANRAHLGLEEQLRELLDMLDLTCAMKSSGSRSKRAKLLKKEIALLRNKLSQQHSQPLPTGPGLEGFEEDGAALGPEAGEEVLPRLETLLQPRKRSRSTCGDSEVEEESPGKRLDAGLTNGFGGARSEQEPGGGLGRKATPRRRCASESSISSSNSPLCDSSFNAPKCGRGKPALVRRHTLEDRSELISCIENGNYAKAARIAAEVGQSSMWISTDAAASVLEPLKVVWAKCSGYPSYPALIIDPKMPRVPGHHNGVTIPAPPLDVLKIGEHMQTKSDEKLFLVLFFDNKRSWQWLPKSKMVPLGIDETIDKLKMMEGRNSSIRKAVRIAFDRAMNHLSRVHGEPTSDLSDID
T7 sequence (Q15059 306-416 limits assumed): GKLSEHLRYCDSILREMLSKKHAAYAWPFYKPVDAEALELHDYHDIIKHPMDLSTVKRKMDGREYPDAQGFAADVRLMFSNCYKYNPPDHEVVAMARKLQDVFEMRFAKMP
T16 sequence (Q8IZX4 1523-1654 limits assumed): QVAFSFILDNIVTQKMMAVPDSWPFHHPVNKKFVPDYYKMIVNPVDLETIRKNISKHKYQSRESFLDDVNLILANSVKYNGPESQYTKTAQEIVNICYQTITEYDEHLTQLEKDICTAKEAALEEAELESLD
T4 sequence (Q92831 whole entry): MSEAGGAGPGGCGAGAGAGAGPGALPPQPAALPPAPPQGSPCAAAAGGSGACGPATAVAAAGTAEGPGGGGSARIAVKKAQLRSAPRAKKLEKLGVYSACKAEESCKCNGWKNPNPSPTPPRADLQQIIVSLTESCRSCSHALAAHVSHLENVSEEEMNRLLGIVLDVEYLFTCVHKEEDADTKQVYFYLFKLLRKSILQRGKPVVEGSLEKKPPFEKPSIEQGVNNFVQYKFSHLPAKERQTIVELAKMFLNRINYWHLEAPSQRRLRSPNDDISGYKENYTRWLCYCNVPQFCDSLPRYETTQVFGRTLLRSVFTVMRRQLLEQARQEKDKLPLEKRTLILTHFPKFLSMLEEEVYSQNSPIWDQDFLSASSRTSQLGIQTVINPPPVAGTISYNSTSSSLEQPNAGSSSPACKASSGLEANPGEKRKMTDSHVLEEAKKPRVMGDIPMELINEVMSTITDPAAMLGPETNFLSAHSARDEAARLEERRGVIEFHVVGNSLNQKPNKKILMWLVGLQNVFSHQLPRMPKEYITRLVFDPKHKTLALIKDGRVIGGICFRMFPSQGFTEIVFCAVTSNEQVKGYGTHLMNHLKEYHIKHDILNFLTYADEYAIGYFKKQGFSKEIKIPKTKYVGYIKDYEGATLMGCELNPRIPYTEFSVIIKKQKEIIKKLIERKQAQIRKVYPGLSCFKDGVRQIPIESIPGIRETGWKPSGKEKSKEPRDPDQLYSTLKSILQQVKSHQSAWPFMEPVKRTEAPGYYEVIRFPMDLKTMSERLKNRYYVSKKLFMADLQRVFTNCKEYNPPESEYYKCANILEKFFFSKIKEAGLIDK
T2 sequence (P51531 whole entry): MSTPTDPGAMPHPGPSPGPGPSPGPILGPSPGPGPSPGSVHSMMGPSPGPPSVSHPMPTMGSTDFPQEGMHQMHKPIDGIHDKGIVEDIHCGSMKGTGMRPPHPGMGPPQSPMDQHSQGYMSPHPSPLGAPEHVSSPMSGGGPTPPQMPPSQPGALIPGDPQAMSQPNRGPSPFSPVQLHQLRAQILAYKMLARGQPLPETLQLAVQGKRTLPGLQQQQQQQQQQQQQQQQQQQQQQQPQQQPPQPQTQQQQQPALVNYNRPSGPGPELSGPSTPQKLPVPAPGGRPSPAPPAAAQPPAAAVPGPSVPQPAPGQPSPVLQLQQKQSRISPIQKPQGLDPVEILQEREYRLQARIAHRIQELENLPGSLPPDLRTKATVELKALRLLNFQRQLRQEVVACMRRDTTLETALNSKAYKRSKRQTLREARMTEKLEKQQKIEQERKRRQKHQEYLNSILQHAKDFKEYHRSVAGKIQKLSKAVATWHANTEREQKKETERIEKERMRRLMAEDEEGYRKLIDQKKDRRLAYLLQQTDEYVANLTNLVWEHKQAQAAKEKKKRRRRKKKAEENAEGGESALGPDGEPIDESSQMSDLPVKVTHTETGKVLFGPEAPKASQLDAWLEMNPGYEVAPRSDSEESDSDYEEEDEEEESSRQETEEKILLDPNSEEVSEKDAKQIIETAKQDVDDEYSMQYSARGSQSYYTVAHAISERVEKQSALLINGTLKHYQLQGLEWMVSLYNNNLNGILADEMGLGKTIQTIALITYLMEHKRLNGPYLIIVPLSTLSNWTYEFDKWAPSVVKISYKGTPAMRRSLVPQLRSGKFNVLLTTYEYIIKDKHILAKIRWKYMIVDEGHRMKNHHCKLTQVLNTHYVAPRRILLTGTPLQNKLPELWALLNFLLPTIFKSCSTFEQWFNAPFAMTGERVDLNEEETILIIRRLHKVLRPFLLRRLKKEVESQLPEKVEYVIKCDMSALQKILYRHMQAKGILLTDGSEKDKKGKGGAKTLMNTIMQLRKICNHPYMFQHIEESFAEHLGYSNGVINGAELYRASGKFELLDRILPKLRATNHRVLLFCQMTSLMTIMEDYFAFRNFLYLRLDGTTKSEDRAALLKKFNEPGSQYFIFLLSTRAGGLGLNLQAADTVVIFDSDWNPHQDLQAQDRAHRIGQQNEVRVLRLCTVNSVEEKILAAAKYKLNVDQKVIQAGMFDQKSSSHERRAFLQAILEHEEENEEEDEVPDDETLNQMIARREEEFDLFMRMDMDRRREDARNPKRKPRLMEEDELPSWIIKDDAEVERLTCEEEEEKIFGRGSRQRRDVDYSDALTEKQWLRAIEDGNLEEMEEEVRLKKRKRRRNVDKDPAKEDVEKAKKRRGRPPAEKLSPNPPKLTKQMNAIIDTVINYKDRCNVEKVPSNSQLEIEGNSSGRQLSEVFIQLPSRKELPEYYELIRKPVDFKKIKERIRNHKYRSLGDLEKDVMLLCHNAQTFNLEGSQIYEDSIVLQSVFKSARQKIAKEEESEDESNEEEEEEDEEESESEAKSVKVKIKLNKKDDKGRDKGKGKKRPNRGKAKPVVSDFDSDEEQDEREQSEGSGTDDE
T5 sequence (P25440 344-455 limits assumed): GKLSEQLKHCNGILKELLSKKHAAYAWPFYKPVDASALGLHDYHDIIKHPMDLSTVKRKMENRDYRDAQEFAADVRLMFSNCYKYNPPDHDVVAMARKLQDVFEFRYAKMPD
T6 sequence (Q13263 whole entry): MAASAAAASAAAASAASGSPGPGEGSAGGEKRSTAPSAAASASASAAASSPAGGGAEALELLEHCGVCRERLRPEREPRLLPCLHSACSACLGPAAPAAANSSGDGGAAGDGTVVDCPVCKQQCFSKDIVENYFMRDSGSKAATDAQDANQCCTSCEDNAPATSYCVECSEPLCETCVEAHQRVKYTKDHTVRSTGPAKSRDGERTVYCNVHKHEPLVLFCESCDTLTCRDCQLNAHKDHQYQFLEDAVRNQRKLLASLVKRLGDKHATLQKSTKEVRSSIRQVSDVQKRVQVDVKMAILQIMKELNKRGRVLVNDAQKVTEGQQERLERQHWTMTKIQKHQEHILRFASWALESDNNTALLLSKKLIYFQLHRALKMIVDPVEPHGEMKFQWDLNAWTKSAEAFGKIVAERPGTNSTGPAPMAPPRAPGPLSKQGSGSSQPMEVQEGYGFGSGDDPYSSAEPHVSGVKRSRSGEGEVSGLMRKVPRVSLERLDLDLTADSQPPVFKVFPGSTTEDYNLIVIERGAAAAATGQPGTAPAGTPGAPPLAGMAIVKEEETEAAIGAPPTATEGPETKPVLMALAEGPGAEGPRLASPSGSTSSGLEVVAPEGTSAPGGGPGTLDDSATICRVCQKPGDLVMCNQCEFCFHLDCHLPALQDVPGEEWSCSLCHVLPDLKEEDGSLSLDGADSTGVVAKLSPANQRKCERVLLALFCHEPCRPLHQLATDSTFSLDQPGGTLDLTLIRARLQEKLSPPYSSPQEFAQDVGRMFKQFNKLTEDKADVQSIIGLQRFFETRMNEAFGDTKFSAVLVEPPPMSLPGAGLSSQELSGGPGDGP
T17 sequence (Q8IZX4 1392-1522 limits assumed): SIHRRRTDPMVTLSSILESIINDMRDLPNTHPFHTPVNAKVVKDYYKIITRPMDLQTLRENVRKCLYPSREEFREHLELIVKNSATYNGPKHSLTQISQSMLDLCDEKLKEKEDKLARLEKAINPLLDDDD
T12 sequence (P25440 71-194 limits assumed): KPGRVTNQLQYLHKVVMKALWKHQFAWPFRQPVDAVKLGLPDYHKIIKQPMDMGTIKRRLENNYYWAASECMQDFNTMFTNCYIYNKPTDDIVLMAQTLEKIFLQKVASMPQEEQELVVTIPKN

SMILES	inhibition of histone H3 K9/K14 deacetylation (Western blot) [1]	EC50 (BRD4 BD2)	bromodomain selectivity in DSF screen (panel of 32 bromodomains)	Mean Tm CREBBPA (CREBBPA)	Mean Tm SMARCA2A (SMARCA2A)	Mean Tm PB1A(4) (PB1A(4))	Mean Tm PCAFA (PCAFA)	Mean Tm BRD2 (2) (BRD2 (2))	Mean Tm TRIM28 (TRIM28)	Mean Tm BRD3 (2) (BRD3 (2))	Mean Tm BRDT(1) (BRDT(1))	Mean Tm TRIM24 (TRIM24)	Mean Tm TRIM33B (TRIM33B)	Mean Tm SP100 (SP100)	Mean Tm BRD1 (BRD1)	Mean Tm BRD2 (1) (BRD2 (1))	Mean Tm TAF1 (1) (TAF1 (1))	Mean Tm BRD7 (BRD7)	Mean Tm PB1A(5) (PB1A(5))	Mean Tm TAF1LA (2) (TAF1LA (2))	other results
Cn1cc(-c2ccc(C(=O)Nc3ccccc3N)nc2)c2cc[nH]c2c1=O [NB500]	much less potent	160 ± 40 nM	–	–	–	–	–	–	–	–	–	–	–	–	–	–	–	–	–	–	–
Cn1cc(-c2ccc(C(=O)Nc3cc(-c4ccccc4)ccc3N)nc2)c2cc[nH]c2c1=O [NB512]	more potent inhibitor overall	250 ± 120 nM	–	–	–	–	–	–	–	–	–	–	–	–	–	–	–	–	–	–	–
Cn1cc(-c2ccc(C(=O)Nc3ccccc3N)cc2)c2cc[nH]c2c1=O [NB462]	significantly more potent than CI-944	190 ± 20 nM	BRD7 and BRD9 as prominent off-targets	1.8 ± 0.3 K	-0.1 ± 0.1 K	0.1 ± 0.1 K	0.1 ± 0.4 K	5.3 ± 0.1 K	0.6 ± 0.4 K	6.1 ± 0.0 K	3.0 ± 0.2 K	0.6 ± 0.1 K	0.4 ± 0.1 K	-0.2 ± 0.1 K	0.2 ± 0.1 K	3.1 ± 0.5 K	0.4 ± 0.1 K	5.6 ± 0.3 K	0.0 ± 0.1 K	1.7 ± 0.1 K	Mean Tm TAF1LA (1) (TAF1LA (1)): 0.3 ± 0.1 K
Cn1cc(-c2ccc(C(=O)Nc3cc(-c4ccccc4)ccc3N)cc2)c2cc[nH]c2c1=O [NB503]	concentration-dependent	520 ± 180 nM	high selectivity for BET bromodomains	1.4 ± 0.3 K	1.2 ± 0.5 K	1.0 ± 0.6 K	1.9 ± 0.2 K	3.6 ± 0.4 K	0.0 ± 0.2 K	4.6 ± 0.7 K	3.3 ± 0.1 K	0.7 ± 0.5 K	0.5 ± 0.0 K	0.4 ± 0.1 K	1.1 ± 0.1 K	3.2 ± 0.5 K	1.0 ± 0.2 K	1.1 ± 0.2 K	1.1 ± 0.2 K	1.2 ± 0.0 K	Mean Tm TAF1LA (1) (TAF1LA (1)): 0.6 ± 0.3 K
